The nature of data set [1]: Pharmacokinetics assay in rats (intragastric and tail vein administration, plasma LC/MS/MS). It counts as in vivo. Particulars: for bioavailability / F (oral absolute bioavailability): intragastric 10 mg/kg (calculated by the base part), from AUC0-t vs tail vein injection; for bioavailability: read-out: F (oral absolute bioavailability); for Cmax: 0.5% CMC-Na suspension. As to the method: The rats were used as experimental animals. The compound of formula (I) and other salts thereof were administrated intragastrically, the maleate of the compound of formula (I) was injected into the tail vein to determine the drug concentration in plasma at different time points by LC/MS/MS method. The pharmacokinetic behavior, characteristics and the oral absolute bioavailability of the compounds in the present invention were studied and evaluated in rats.
The compound of formula (I), compounds of Example 1˜5.
28 healthy adult SD rats, male and female in half, were divided into 7 groups (4 rats in each group) and purchased from SINO-BRITSH SIPPR/BK LAB. ANIMAL LTD., CO, License number: SCXK (Shanghai) 2008-0016.
The intravenous injection administration group: the suitable amount of compounds were weighted, added into physiological saline and diluted to the final volume. The sample concentration was 1.0 mg/mL.
The intragastrical administration group: the suitable amount of compounds were weighted and added into 0.5% CMC-Na to prepare 1.0 mg/mL suspension by using ultrasound device. The sample should be prepared freshly away from light at the time of use.
28 healthy adult SD rats, male and female in half, were divided into 7 groups (4 rats in each group). After an overnight fast, the compound of Example 1, at a dose of 10 mg/kg (calculated by the base part), at a volume of 10 mL/kg, was administered intragastrically or injected into the tail vein.
For the intravenous injection administration group, blood samples (0.2 mL) were taken from orbital sinus at pre administration and at 2 minutes, 15 minutes, 30 minutes, 1.0 hour, 2.0 hours, 4.0 hours, 6.0 hours, 8.0 hours, 12.0 hours, 24.0 hours and 36.0 hours post administration, stored in heparinized tubes and centrifuged for 10 minutes at 3,500 rpm. The plasma samples were stored at −20° C.
For the intragastrical administration group, blood samples were taken at pre administration and at 0.5, 1.0, 2.0, 3.0, 4.0, 6.0, 8.0, 12.0, 24.0 and 36.0 hours post administration. The method to treat the samples was the same with the intravenous injection administration group. The rats were fed 2 hours after administration.
25 μL of rat plasmas taken at various time points after administration were mixed with 20 μL of internal standard solution and […] of methanol for 2 minutes by using a vortexer and the mixture was centrifuged for 10 minutes at 16,000 rpm. 10 pt of the supernatant was analyzed by LC-MS/MS.
25 μL of rat blank plasmas were mixed with a series of standard solutions respectively to obtain plasma concentration of 1.00, 2.00, 5.00, 25.0, 100, 500, 2000 and 5000 ng/mL. 20 μL of internal standard solution and 150 μL of methanol were added and then the mixture was operated according to “plasma sample pretreatment” method. Plasma concentration was used as the abscissa, the ratio of chromatographic peak area between the sample and internal standard was used as the ordinate, the linear regression was carried out by the weighted least square method (w=1/x^2) to obtain the typical standard curve equation.
Compartment model fitting was carried out on the pharmacokinetic behavior of the tested compounds to calculate the main pharmacokinetic parameters, wherein the measured values were taken for Cmax and tmax. Oral absolute bioavailability was calculated according to AUC0-t after intragastrical administration and intravenous injection at tail vein.

Data set [2] can be described thus: Solubility assay in physiological saline. The class given is physicochemical. The settings on record: conclusion in words. As to the method:
According to the conventional solubility measurement, the solubility of the compound of formula (I) and salts thereof were determined in physiological saline.

Data set [3] in a line: Solubility in conventional solvents (inventor's finding). The settings on record: in words. The class given is physicochemical. From the text: It is necessary to develop new forms of the compound of formula (I) to improve its solubility and pharmacokinetic absorption, which can be used in conventional preparation of dosage forms.
Setting [4] is: both sexes, Sprague-Dawley (SD), rat, plasma, iv, 10 mg/kg, Vein (tail vein injection) 10 mg/kg, read-out: MRT.
The mark [5] stands for this setting: both sexes, Sprague-Dawley (SD), rat, plasma, iv, Vein (tail vein injection) 10 mg/kg.
Setting [6] is: both sexes, Sprague-Dawley (SD), rat, plasma, iv, Vein (tail vein injection) 10 mg/kg in physiological saline, read-out: AUC0-t.
Setting [7] is: both sexes, Sprague-Dawley (SD), rat, plasma, po, 10 mg/kg, intragastric 10 mg/kg.
[8] abbreviates: both sexes, Sprague-Dawley (SD), rat, plasma, po, 10 mg/kg.
Setting [9] is: both sexes, Sprague-Dawley (SD), rat, plasma, po, 10 mg/kg, intragastric 10 mg/kg, read-out: Cmax.
Setting [10] is: both sexes, Sprague-Dawley (SD), rat, plasma, po, 10 mg/kg, intragastric 10 mg/kg, read-out: AUC0-t.
Where [11] appears, read: both sexes, Sprague-Dawley (SD), rat, plasma, po, 10 mg/kg, intragastric 10 mg/kg, read-out: MRT.
Where [12] appears, read: both sexes, Sprague-Dawley (SD), rat, plasma, po, 10 mg/kg, intragastric 10 mg/kg, read-out: Tmax.
The mark [13] stands for this setting: SD rats, intragastric 10 mg/kg, maleate.
The mark [14] stands for this setting: SD rats, Vein (tail vein injection) 10 mg/kg.

Results on 6 molecules are retold here after patent US20120295887A1, “PHARMACEUTICALLY ACCEPTABLE SALTS OF PYRROLO-NITROGENOUS HETEROCYCLIC DERIVATIVES, PREPARATION METHOD AND MEDICAL USE THEREOF” (SHANGHAI HENGRUI PHARMACEUTICAL CO., LTD., priority 2010, published 2012).

Structures can show the parent of a compound that is named as a salt. Where two headings read alike, the source gives them in different places.

Turning to `CC(O)C(=O)O.Cc1c(/C=C2\C(=O)Nc3ccc(F)cc32)[nH]c2c1C(=O)N(C[C@H](O)CN1CCOCC1)CCC2` [Example 3, (R,Z)-2-(5-fluoro-2-oxo-1,2-dihydro-indol-3-ylidenemethyl)-5-(2-hydroxy-3-morpholin-4-yl-propyl)-3-methyl-5,6,7,8-tetrahydro-1H-pyrrolo[3,2-c]azepin-4-one lactate], the MRT in data set [1] (setting [4]) stood at 1.4 ± 0.35 h; in data set [1] (setting [11]), 6.28 ± 1.56 h. In addition, the figures for the half-life in data set [1] (setting [5]) and in data set [1] (setting [7]) were 5.97 ± 2.5 h and 3.06 ± 1.21 h, respectively. Moreover, the AUC(0-t) in data set [1] (setting [6]) was determined as 16100 ± 3970 ng·h/mL; in data set [1] (setting [10]) it was 5900 ± 3350 ng·h/mL. Also, in data set [1] (setting [7]), the apparent clearance CL/F was 27.3 mL/min/kg. Further, the bioavailability in data set [1] (setting [8]) was 36.6%. Also, the highest concentration (Cmax) in data set [1] (setting [9]) is 810 ± 450 ng/mL. Also, the time to peak (Tmax) in data set [1] (setting [12]) turned out to be 2.5 ± 1 h.
For `Cc1c(/C=C2\C(=O)Nc3ccc(F)cc32)[nH]c2c1C(=O)N(C[C@H](O)CN1CCOCC1)CCC2.O=C(O)C[C@H](O)C(=O)O` [Example 2, (R,Z)-2-(5-fluoro-2-oxo-1,2-dihydro-indol-3-ylidenemethyl)-5-(2-hydroxy-3-morpholin-4-yl-propyl)-3-methyl-5,6,7,8-tetrahydro-1H-pyrrolo[3,2-c]azepin-4-one malate], the mean residence time (MRT) came out at 1.4 ± 0.35 h in data set [1] (setting [4]) and 4.29 ± 1.87 h in data set [1] (setting [11]). Further, the half-life in data set [1] (setting [5]) was 5.97 ± 2.5 h; in data set [1] (setting [7]) it was 3.13 ± 0.97 h. Also, the figures for the AUC(0-t) in data set [1] (setting [6]) and in data set [1] (setting [10]) were 16100 ± 3970 ng·h/mL and 4900 ± 2790 ng·h/mL, respectively. In data set [1] (setting [7]), this molecule showed a CL/F of 29.8 mL/min/kg. Besides, the bioavailability in data set [1] (setting [8]) is 30.4%. The peak concentration (Cmax) in data set [1] (setting [9]) turned out to be 850 ± 390 ng/mL. Further, in data set [1] (setting [12]), the Tmax amounted to 1.75 ± 1.66 h.
In the case of `Cc1c(/C=C2\C(=O)Nc3ccc(F)cc32)[nH]c2c1C(=O)N(C[C@H](O)CN1CCOCC1)CCC2.Cl` [Example 5, (R,Z)-2-(5-fluoro-2-oxo-1,2-dihydro-indol-3-ylidenemethyl)-5-(2-hydroxy-3-morpholin-4-yl-propyl)-3-methyl-5,6,7,8-tetrahydro-1H-pyrrolo[3,2-c]azepin-4-one hydrochloride], the half-life in data set [1] (both sexes, Sprague-Dawley (SD), rat, plasma, iv, 10 mg/kg, Vein (tail vein injection) 10 mg/kg) was 5.97 ± 2.5 h; in data set [1] (setting [7]), 3.6 ± 0.52 h. Also, the AUC(0-t) is 16100 ± 3970 ng·h/mL in data set [1] (both sexes, Sprague-Dawley (SD), rat, plasma, iv, 10 mg/kg, Vein (tail vein injection) 10 mg/kg in physiological saline, read-out: AUC0-t) and 4070 ± 1630 ng·h/mL in data set [1] (setting [10]). The mean residence time (MRT) in data set [1] (setting [4]) is 1.4 ± 0.35 h; in data set [1] (setting [11]), 6.8 ± 1.58 h. In data set [1] (setting [7]), the CL/F was 33.8 mL/min/kg. Besides, the bioavailability in data set [1] (setting [8]) is 25.2%. For the same molecule, the Cmax in data set [1] (setting [9]) worked out at 500 ± 100 ng/mL. For the same molecule, the Tmax in data set [1] (setting [12]) was found to be 4.25 ± 2.06 h.
`Cc1c(/C=C2\C(=O)Nc3ccc(F)cc32)[nH]c2c1C(=O)N(C[C@H](O)CN1CCOCC1)CCC2` [Example 4, (R,Z)-2-(5-fluoro-2-oxo-1,2-dihydro-indol-3-ylidenemethyl)-5-(2-hydroxy-3-morpholin-4-yl-propyl)-3-methyl-5,6,7,8-tetrahydro-1H-pyrrolo[3,2-c]azepin-4-one mesylate]: the “F (oral absolute bioavailability)” value in data set [1] (SD rats, mesylate) was 45.3%. Moreover, in data set [1] (SD rats, intragastric 10 mg/kg, mesylate), the time to peak (Tmax) was determined as 3.75 ± 1.71 h. In addition, the values for the MRT in data set [1] (setting [4]) and in data set [1] (setting [11]) were 1.4 ± 0.35 h and 6.68 ± 1.58 h, respectively. Also, the results for the half-life in data set [1] (setting [5]) and in data set [1] (setting [7]) were 5.97 ± 2.5 h and 3.41 ± 0.85 h, respectively. The AUC(0-t) in data set [1] (setting [6]) was 16100 ± 3970 ng·h/mL; in data set [1] (setting [10]), 7300 ± 5870 ng·h/mL. In data set [1] (setting [7]), this molecule gave a CL/F of 24.8 mL/min/kg. Also, in data set [1] (setting [9]), the Cmax turned out to be 770 ± 390 ng/mL.
As for `Cc1c(/C=C2\C(=O)Nc3ccc(F)cc32)[nH]c2c1C(=O)N(C[C@H](O)CN1CCOCC1)CCC2` [Example 1, (R,Z)-2-(5-fluoro-2-oxo-1,2-dihydro-indol-3-ylidenemethyl)-5-(2-hydroxy-3-morpholin-4-yl-propyl)-3-methyl-5,6,7,8-tetrahydro-1H-pyrrolo[3,2-c]azepin-4-one maleate], the “solubility compared with free base and other salts of the compound of formula (I)” value in data set [2] was “Conclusion: Compared with free base and other salts of the compound of formula (I), the solubility of maleate of the compound of formula (I) has significantly improved”. In addition, the “F (oral absolute bioavailability)” value in data set [1] (SD rats, maleate) is 48.2%. Besides, in data set [1] (setting [13]), the peak concentration (Cmax) worked out at 950 ± 370 ng/mL, the AUC(0-t) amounted to 7770 ± 2990 ng·h/mL, the MRT came to 6.66 ± 2.05 h and the time to peak (Tmax) came to 5.75 ± 2.06 h. In data set [1] (setting [13]), this molecule gave a t1/2 of 3.01 ± 0.60 h.
Turning to `Cc1c(/C=C2\C(=O)Nc3ccc(F)cc32)[nH]c2c1C(=O)N(C[C@H](O)CN1CCOCC1)CCC2` [The compound of formula (I), (R,Z)-2-(5-fluoro-2-oxo-1,2-dihydro-indol-3-ylidenemethyl)-5-(2-hydroxy-3-morpholin-4-yl-propyl)-3-methyl-5,6,7,8-tetrahydro-1H-pyrrolo[3,2-c]azepin-4-one], in data set [3], the “solubility in conventional solvents” value is “poorly soluble”. In data set [1] (setting [14]), this molecule had a mean residence time MRT of 1.40 ± 0.35 h and a t1/2 of 5.97 ± 2.50 h. In data set [1] (SD rats, Vein (tail vein injection) 10 mg/kg in physiological saline), this molecule yielded an AUC(0-t) of 16120 ± 3970 ng·h/mL. Further, in data set [1] (SD rats, intragastric 10 mg/kg), the AUC(0-t) is 4490 ± 2790 ng·h/mL, the MRT amounted to 5.24 ± 2.23 h, the Tmax amounted to 2.00 ± 1.41 h and the t1/2 is listed as 3.31 ± 0.57 h. In data set [1] (SD rats, intragastric 10 mg/kg), the Cmax was found to be 640 ± 240 ng/mL. The “F (oral absolute bioavailability)” value in data set [1] (SD rats) is listed as 27.9%.

As a reminder, the MRT is a mean duration of stay, worked out from the concentration-time curve. For orientation: half-life means how long it takes for the measured level to halve. High values mean slow decline, low ones rapid decline. In general, CL/F refers to clearance divided by bioavailability, as obtained after extravascular dosing. Broadly, the bioavailability is dose-corrected exposure relative to a reference, in per cent. The term Cmax denotes the peak of the concentration-time curve. By Tmax is commonly meant the time at which the peak concentration occurs.
